Experimental data reported in patent US11649251B2, “Substituted inhibitors of menin-MLL and methods of use” (Kura Oncology, Inc., priority 2017, dated 2023).

Molecular target: T1, Menin MLL 4-43 (Homo sapiens, UniProt O00255)
T1 sequence (O00255 1-610): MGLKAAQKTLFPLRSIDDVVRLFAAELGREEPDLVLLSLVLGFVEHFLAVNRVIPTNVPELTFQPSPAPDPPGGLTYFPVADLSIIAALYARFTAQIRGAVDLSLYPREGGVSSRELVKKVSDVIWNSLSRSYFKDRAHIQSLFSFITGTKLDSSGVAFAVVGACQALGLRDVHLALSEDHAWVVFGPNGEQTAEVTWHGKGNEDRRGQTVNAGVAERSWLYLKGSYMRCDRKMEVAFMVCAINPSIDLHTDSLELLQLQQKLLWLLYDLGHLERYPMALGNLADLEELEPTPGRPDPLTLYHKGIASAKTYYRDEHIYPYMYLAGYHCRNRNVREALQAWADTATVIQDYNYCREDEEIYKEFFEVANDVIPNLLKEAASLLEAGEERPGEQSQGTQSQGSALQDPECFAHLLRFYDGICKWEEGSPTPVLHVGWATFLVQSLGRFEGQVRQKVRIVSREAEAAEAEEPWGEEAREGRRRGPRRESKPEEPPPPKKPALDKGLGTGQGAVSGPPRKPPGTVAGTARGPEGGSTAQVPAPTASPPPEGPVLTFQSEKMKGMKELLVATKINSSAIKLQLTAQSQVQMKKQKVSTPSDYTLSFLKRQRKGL
Assay: Fluorescence polarization (FP) competition assay of the menin-MLL interaction
Assay type: binding
Settings: fluorescence polarization competition with fluorescein-labeled MLL peptide
Source text: This example illustrates an assay effective in monitoring the binding of MLL to menin. […] A fluorescein-labeled peptide containing the high affinity menin binding motif found in MLL was produced according to Yokoyama et al. (Cell, 2005, 123(2): 207-218), herein incorporated by reference in its entirety. Binding of the labeled peptide (1.7 kDa) to the much larger menin (˜67 kDa) is accompanied by a significant change in the rotational correlation time of the fluorophore, resulting in a substantial increase in the fluorescence polarization and fluorescence anisotropy (excitation at 500 nm, emission at 525 nm).

| Compound | IC50 [nM] |
| --- | --- |
| Cc1c(CN2CCC3(CCN(c4ncnc5sc(CC(F)(F)F)cc45)C3)C2)ccc2c1cc(C#N)n2C[C@@H]1CNC(=O)OC1 (stereo partly shown) [Compound 44] | < 50 |
| CNc1nc(N2CCC3CCN(Cc4ccc5[nH]c(C#N)cc5c4C)C3C2)c2cc(CC(F)(F)F)sc2n1 (stereo not shown) [Compound 143] | > 1000 |
| CNc1nc(N2CC3CCN(Cc4ccc5[nH]c(C#N)cc5c4C)CC3C2)c2cc(CC(F)(F)F)sc2n1 (stereo not shown) [Compound 157] | > 1000 |
| CNc1nc(N2CC3CCN(CCc4ccccc4)CC3C2)c2cc(CC(F)(F)F)sc2n1 (stereo not shown) [Compound 158] | > 1000 |
| CNc1nc(N2CCC3(CCN(Cc4ccc(NS(=O)(=O)NC)cc4)C3)C2)c2cc(CC(F)(F)F)sc2n1 (stereo not shown) [Compound 96] | > 1000 |
| CNc1nc(N2CC3CCN(CCc4ccccc4)C3C2)c2cc(CC(F)(F)F)sc2n1 (stereo not shown) [Compound 142] | > 1000 |
| Cc1c(CN2CCC3(CCN(c4nc(N)nc5sc(CC(F)(F)F)cc45)C3)C2)ccc2[nH]c(C#N)cc12 (stereo not shown) [Compound 125] | > 1000 |
| Cc1nc(N2CC3CN(Cc4ccc5[nH]c(C#N)cc5c4C)CC3C2)c2cc(CC(F)(F)F)sc2n1 (stereo not shown) [Compound 149] | > 1000 |
| CNc1nc(N2CCC3CCN(Cc4ccccc4)C3C2)c2cc(CC(F)(F)F)sc2n1 (stereo not shown) [Compound 145] | > 1000 |
| CNc1nc(N2CC3CCN(Cc4ccccc4)C3C2)c2cc(CC(F)(F)F)sc2n1 (stereo not shown) [Compound 141] | > 1000 |
| CNc1nc(N2CCC3CN(CCc4ccc5[nH]ccc5c4)CC3C2)c2cc(CC(F)(F)F)sc2n1 (stereo not shown) [Compound 155] | 250 to 1000 |
| CNc1nc(N2CC3CCN(Cc4ccc5[nH]c(=O)[nH]c5c4)C3C2)c2cc(CC(F)(F)F)sc2n1 (stereo not shown) [Compound 140] | > 1000 |
| Cc1nc(N2CCC3(CCN(Cc4ccc(NS(C)(=O)=O)cc4)C3)C2)c2cc(CC(F)(F)F)sc2n1 (stereo not shown) [Compound 25] | 250 to 1000 |
| CNc1nc(N2CCC3CCN(Cc4ccc5[nH]c(=O)[nH]c5c4)C3C2)c2cc(CC(F)(F)F)sc2n1 (stereo not shown) [Compound 144] | > 1000 |
| CNc1nc(N2CCC3(CCN(Cc4ccc(NS(C)(=O)=O)cc4)C3)C2)c2cc(CC(F)(F)F)sc2n1 (stereo not shown) [Compound 26] | 50 to 250 |
| CNc1nc(N2CC3CN(Cc4ccc(NS(C)(=O)=O)cc4)CC3C2)c2cc(CC(F)(F)F)sc2n1 (stereo not shown) [Compound 147] | > 1000 |
| CNc1nc(N2CC3CN(Cc4ccc5[nH]c(C#N)cc5c4C)CC3C2)c2cc(CC(F)(F)F)sc2n1 (stereo not shown) [Compound 127] | 50 to 250 |

| Compound | IC50 [nM] |
| --- | --- |
| CNc1nc(N2CC3CN(Cc4ccc(C#N)cc4)CC3C2)c2cc(CC(F)(F)F)sc2n1 (stereo not shown) [Compound 146] | > 1000 |
| CNc1nc(N2CC3CN(Cc4ccc(NC(C)=O)cc4)CC3C2)c2cc(CC(F)(F)F)sc2n1 (stereo not shown) [Compound 148] | > 1000 |
| CNc1nc(N2CCC3CN(Cc4ccc5[nH]c(C#N)cc5c4C)CC3C2)c2cc(CC(F)(F)F)sc2n1 (stereo not shown) [Compound 153] | > 1000 |
| CNc1nc(N2CCC3CN(CCc4ccccc4)CC3C2)c2cc(CC(F)(F)F)sc2n1 (stereo not shown) [Compound 154] | > 1000 |
| Cc1c(CN2CC3CN(c4ncnc5sc(CC(F)(F)F)cc45)CC3C2)ccc2[nH]c(C#N)cc12 (stereo not shown) [Compound 150] | > 1000 |
| CNc1nc(N2CC3CN(CCc4ccccc4)CC3C2)c2cc(CC(F)(F)F)sc2n1 (stereo not shown) [Compound 128] | > 1000 |
| CNc1nc(N2CC3CCN(CCc4ccc5[nH]ccc5c4)CC3C2)c2cc(CC(F)(F)F)sc2n1 (stereo not shown) [Compound 159] | > 1000 |
| CNc1nc(N2CCC3(CCN(C[C@H]4CC[C@H](NS(C)(=O)=O)CC4)C3)C2)c2cc(CC(F)(F)F)sc2n1 (stereo partly shown) [Compound 14] | < 50 |
| CNc1nc(N2CC3CCN(Cc4ccc5[nH]c(C#N)cc5c4C)C3C2)c2cc(CC(F)(F)F)sc2n1 (stereo not shown) [Compound 129] | > 1000 |
| CNc1nc(N2CC3CN(CCc4ccc5[nH]ccc5c4)CC3C2)c2cc(CC(F)(F)F)sc2n1 (stereo not shown) [Compound 139] | 250 to 1000 |
| CCS(=O)(=O)Nc1ccc(CN2CCC3(CCN(c4nc(NC)nc5sc(CC(F)(F)F)cc45)C3)C2)cc1 (stereo not shown) [Compound 126] | 50 to 250 |
| Cc1nc(N2CCC3(CCN(Cc4ccc5c(c4)[nH]c(=O)n5CCO)C3)C2)c2cc(CC(F)(F)F)sc2n1 (stereo not shown) [Compound 29] | 250 to 1000 |
| CNc1nc(N2CCC3CN(Cc4ccccc4)CC3C2)c2cc(CC(F)(F)F)sc2n1 (stereo not shown) [Compound 152] | 250 to 1000 |
| CNc1nc(N2CC3CCN(Cc4ccccc4)CC3C2)c2cc(CC(F)(F)F)sc2n1 (stereo not shown) [Compound 156] | > 1000 |
| Cc1nc(N2CCC3(CCN(Cc4ccc5[nH]c(C#N)cc5c4C)C3)C2)c2cc(CC(F)(F)F)sc2n1 (stereo not shown) [Compound 41] | > 1000 |
| CNc1nc(N2CCC3(CCN(Cc4ccc5c(c4)[nH]c(=O)n5CCO)C3)C2)c2cc(CC(F)(F)F)sc2n1 (stereo not shown) [Compound 30] | < 50 |

Other lines, results leading:

| IC50 [nM] | Compound |
| --- | --- |
| < 50 | CNc1nc(N2CCC3(CCN(Cc4ccc5c(cc(C#N)n5C[C@H](C)N5CCC(S(C)(=O)=O)CC5)c4C)C3)C2)c2cc(CC(F)(F)F)sc2n1 (stereo partly shown) [Compound 75] |
| < 50 | Cc1c(CN2CCC3(CCN(c4ncnc5sc(CC(F)(F)F)cc45)C3)C2)ccc2c1cc(C#N)n2C[C@H](C)N1CCN(S(C)(=O)=O)CC1 (stereo partly shown) [Compound 43] |
| > 1000 | CNc1nc(N2CC3CN(Cc4ccc5c(cc(C#N)n5CCN5CCN(S(C)(=O)=O)CC5)c4C)CC3C2)c2cc(CC(F)(F)F)sc2n1 (stereo not shown) [Compound 151] |
| 50 to 250 | Cc1nc(N2CCC3(CCN(Cc4ccc5c(cc(C#N)n5C[C@H](C)N5CCN(S(C)(=O)=O)CC5)c4C)C3)C2)c2cc(CC(F)(F)F)sc2n1 (stereo partly shown) [Compound 8] |
| < 50 | CNc1nc(N2CCC3(CCN(Cc4ccc5c(cc(C#N)n5CCN5CCC(S(C)(=O)=O)CC5)c4C)C3)C2)c2cc(CC(F)(F)F)sc2n1 (stereo not shown) [Compound 77] |
| < 50 | CNS(=O)(=O)C1CCN([C@@H](C)Cn2c(C#N)cc3c(C)c(CN4CCC5(CCN(c6ncnc7sc(CC(F)(F)F)cc67)C5)C4)ccc32)CC1 (stereo partly shown) [Compound 70] |
| 50 to 250 | CCC(=O)NC12CC(Cn3c(C#N)cc4c(C)c(CN5CCC6(CCN(c7nc(NC)nc8sc(CC(F)(F)F)cc78)C6)C5)ccc43)(C1)C2 (stereo not shown) [Compound 11] |
| < 50 | Cc1nc(N2CCC3(CCN(Cc4ccc5c(cc(C#N)n5C[C@H](C)N5CCN(S(C)(=O)=O)CC5)c4C)C3)C2)c2cc(CC(F)(F)F)sc2n1 (stereo partly shown) [Compound 17] |
| < 50 | CNc1nc(N2CCC3(CCN(Cc4ccc5c(cc(C#N)n5C[C@H](C)N5CCC(S(=O)(=O)NC)CC5)c4C)C3)C2)c2cc(CC(F)(F)F)sc2n1 (stereo partly shown) [Compound 68] |
| 50 to 250 | CNc1nc(N2CCC3(CCN(Cc4ccc5c(cc(C#N)n5C[C@H](C)N5CCN(S(C)(=O)=O)CC5)c4C)C3)C2)c2cc(CC(F)(F)F)sc2n1 (stereo partly shown) [Compound 9] |
| 50 to 250 | CNS(=O)(=O)N1CCN([C@@H](C)Cn2c(C#N)cc3c(C)c(CN4CCC5(CCN(c6nc(C)nc7sc(CC(F)(F)F)cc67)C5)C4)ccc32)CC1 (stereo partly drawn) [Compound 1, 4-((2S)-1-(2-cyano-4-methyl-5-((7-(2-methyl-6-(2,2,2-trifluoroethyl)thieno[2,3-d]pyrimidin-4-yl)-2,7-diazaspiro[4.4]nonan-2-yl)methyl)-1H-indol-1-yl)propan-2-yl)-N-methylpiperazine-1-sulfonamide] |
| < 50 | CNc1nc(N2CCC3(CCN(Cc4ccc5c(cc(C#N)n5C[C@H](C)N5CCN(S(=O)(=O)NC)CC5)c4C)C3)C2)c2cc(CC(F)(F)F)sc2n1 (stereo partly shown) [Compound 5] |
| < 50 | CNc1nc(N2CCC3(CCN(Cc4ccc5c(cc(C#N)n5C[C@@H]5CNC(=O)CO5)c4C)C3)C2)c2cc(CC(F)(F)F)sc2n1 (stereo partly shown) [Compound 22] |
| 250 to 1000 | CNc1nc(N2CCC3(CCN(Cc4ccc5[nH]c(C#N)cc5c4C)C3)C2)c2cc(CC(F)(F)F)sc2n1 (stereo not shown) [Compound 42] |
| < 50 | CNS(=O)(=O)C1CCN([C@@H](C)Cn2c(C#N)cc3c(C)c(CN4CCC5(CCN(c6nc(C)nc7sc(CC(F)(F)F)cc67)C5)C4)ccc32)CC1 (stereo partly shown) [Compound 69] |
| 250 to 1000 | CCC(=O)NC12CC(Cn3c(C#N)cc4c(C)c(CN5CCC6(CCN(c7nc(C)nc8sc(CC(F)(F)F)cc78)C6)C5)ccc43)(C1)C2 (stereo not shown) [Compound 3, N-(3-((2-cyano-4-methyl-5-((7-(2-methyl-6-(2,2,2-trifluoroethyl)thieno[2,3-d]pyrimidin-4-yl)-2,7-diazaspiro[4.4]nonan-2-yl)methyl)-1H-indol-1-yl)methyl)bicyclo[1.1.1]pentan-1-yl)propionamide] |
| 50 to 250 | CNc1nc(N2CCC3(CCN(Cc4ccc5c(cc(C#N)n5CCN5CCN(S(=O)(=O)NC)CC5)c4C)C3)C2)c2cc(CC(F)(F)F)sc2n1 (stereo not shown) [Compound 46] |
| < 50 | CNS(=O)(=O)N1CCN([C@@H](C)Cn2c(C#N)cc3c(C)c(CN4CCC5(CCN(c6ncnc7sc(CC(F)(F)F)cc67)C5)C4)ccc32)CC1 (stereo partly shown) [Compound 45] |
| < 50 | Cc1nc(N2CCC3(CCN(Cc4ccc5c(cc(C#N)n5C[C@@H]5CNC(=O)CO5)c4C)C3)C2)c2cc(CC(F)(F)F)sc2n1 (stereo partly shown) [Compound 21] |
